In patent US6403554B2, “Polyunsaturated fatty acid derivatives and their use” (Ardenia Investments Ltd., priority 1998, dated 2002):
Values joined by “and” are separate entries in the source; they are usually repeats but may differ in a detail not shown here. Equal entries are not always repeated. “Also recorded” adds a separate entry of the source.

Columns and labels:
[1] = tested on: antibody-forming cells (AFC) in the spleen; assay: Influence of AFP/compound complexes and their components on humoral immune response (AFC in spleen); format: in vivo, C57B1/6 mice; conditions: for Dose at which immunostimulating effect in vivo is displayed: compound in a complex with AFP
Experimental: 0.15 ml of AFP/Compound 3 complex was administered intravenously to 6 mice males of C57B1/6 line (weight 18-22 g) in the dose of […] of AFP and 45.5 μg of compound 3 per capita. Simultaneously suspension of 5·10^7 sheep erythrocytes was injected intraperitoneally (0.2 ml per capita). In the group with compound 3 mice were injected intravenously by one in the dose of 45.5 μg. Animals of group with AFP received 9 μg of AFP. Mice of control group were injected intravenously with equal volume of saline. Complex AFP/Compound 3 effect on humoral immune response was analyzed by counting the quantity of AFC in the spleen according to Cunningham (per 10^6 spleen cells and per spleen).
0.15 ml of AFP/Compound 2a complex (1:100) was administered intravenously to 6 mice males of C57B1/6 line (weight 18-22 g) in the dose of 9 μg of AFP and 45.5 μg of compound 2a per capita. Simultaneously, a suspension of 5·10^7 sheep erythrocytes was injected intraperitoneally (0.2 ml per capita). In the group with compound 2a mice were injected intravenously by one in the dose of 45.5 μg. Animals of group with AFP received 9 μg of AFP. Mice in the control group were injected intravenously with an equal volume of saline. The effect of the AFP/Compound 2a complex on humoral immune response was analyzed by counting the quantity of AFC in the spleen according to Cunningham (per 10^6 spleen cells and per spleen).
(§1) 0.15 ml of AFP/Compound 10 complex (1:200) was administered intravenously to 6 male mice of C57B1/6 line (weight 18-22 g) in the dose of 9 μg of AFP and 91 μg of compound 10 per capita. Simultaneously, a suspension of 5·10^7 sheep erythrocytes was injected intraperitoneally (0.2 ml per capita). In the group receiving compound 10 mice were injected intravenously by one in the dose of 91 μg. Animals in the group with AFP received 9 μg of AFP. Micein the control group were injected intravenously with an equal volume of saline. The effect of the AFP/Compound 10 complex on humoral immune response was analyzed by counting the quantity of AFC in the spleen according to Cunningham (per 10^6 spleen cells and per spleen).
as §1, with “AFP/Compound 14” for “AFP/Compound 10”, “compound 14” for “compound 10”, “group with” for “group receiving”, “Animals of” for “Animals in the”, “AFP. Mice in” for “AFP. Micein”
0.15 ml of AFP/Compound 7 complex (1:200) was administered intravenously to 6 male mice of C57B1/6 line (weight 18-22 g) in the dose of 9 μg of AFP and 91 μg of compound 7 per capita. Simultaneously, a suspension of 5·10^7 sheep erythrocytes was injected intraperitoneally (0.2 ml per capita). In the group with compound 7 mice were injected intravenously by one in the dose of 91 μg. Animals of group with AFP received 9 μg of AFP. Mice of control group were injected intravenously with equal volume of saline. AFP/Compound 7 complex effect on humoral immune response was analyzed by counting the quantity of AFC in the spleen according to Cunningham (per 10^6 spleen cells and per spleen).
0.15 ml of AFP/Compound 15 complex (1:200) was administered intravenously to 6 mice males of C57B1/6 line (weight 18-22 g) in the dose of 9 μg of AFP and 91 μg of compound 15 per capita. Simultaneously, a suspension of 5·10^7 sheep erythrocytes was injected intraperitoneally (0.2 ml per capita). In the group receiving compound 15, the mice were injected intravenously by one in the dose of 91 μg. Animals in the AFP-group received 9 μg of AFP. […]

[2] = tested on: hemagglutinating antibodies in serum; assay: Humoral immune response: titers of hemagglutinating antibodies in serum; format: in vivo, C57B1/6 mice; conditions: serum, female mice
Experimental: 0.15 ml of compound 10 was administered intravenously to 6 mice females of CS7B1/6 line (weight 18-22 g) in doses of 45.5, 91 and 136.5 μg of compound 10 per capita for each testing group according to the dose. Simultaneously, a suspension of 5·10^7 sheep erythrocytes was injected intraperitoneally (0.2 ml per capita). Mice in the control group were injected intravenously with equal volume of saline. The effects of compound 10 on humoral immune response were analyzed both by counting the quantity of AFC in the spleen according to Cunningham (per 10^6 spleen cells and per spleen) and estimating the titers of hemagglutining antibodies in serum of the animals (Cunningham A. J., Nature, 1965, Vol.207, No 5001. P.1106-1107), while the titers of hemagglutinating antibodies were evaluated according to litterature (Evans J. et al., Cell, 1974; Vol 3., p.153-158, Feizi T., Menger E., Transfusion, 1970, Vol. 10, p.33-35,).
(§2) 0.15 ml of compound 11 was administered intravenously to 6 female mice of the C57B1/6 line (weight 18-22 g) in doses of 45.5, 91 and 136.5 μg of compound 11 per capita for each testing group according to the dose. Simultaneously, a suspension of 5·10^7 sheep erytrocytes was injected intraperitoneally (0.2 ml per capita). Mice in the control group were injected intravenously with an equal volume of saline. The effects of compound 11 on humoral immune response was analysed both by counting the quantity of AFC in the spleen according to Cunningham (per 10^6 spleen cells and per spleen) and estimating the titers of hemagglutining antibodies in serum of the animals.
as §2, with “12” for “11”, “erythrocytes” for “erytrocytes”, “analyzed” for “analysed”
as §2, with “compound 8” for “compound 11”, “sheep erythrocytes” for “sheep erytrocytes”, “Mice of” for “Mice in”, “response were analyzed” for “response was analysed”
as §2, with “compound 3” for “compound 11”, “Mice of” for “Mice in”, “with” for “with an”, “response were” for “response was”
0.15 ml of compound 4 was administered intravenously to 6 female mice of the C57B1/6 line (weight 18-22 g) in a doses of 45.5, 91 and 136.5 μg of compound 4 per capita for each testing group according to the dose. Simultaneously, a suspension of 5·10^7 sheep erythrocytes was injected intraperitoneally (0.2 ml per capita). […]

[3] = AFP alone 9 μg/mouse i.v., 5-th day, male mice

Molecule: CC1=C(/C=C/C(C)=C/C=C/C(C)=C/C(=O)NCCOP(=O)(O)O)C(C)(C)CCC1 [Compound 1, N-(all-trans-retinoyl)-o-phospho-2-aminoethanol]
- Immunogenic activity ([1]; compound alone, 45.5 μg/mouse): no immunogenic activity; also recorded: do not inhibit immunogenic activity
- Dose at which immunostimulating effect in vivo is displayed [1]: 45.5 μg/mouse

Molecule: CCCCC/C=C\C/C=C\C/C=C\C/C=C\CCCC(=O)N[C@H](C(=O)O)[C@@H](C)OP(=O)(O)O [Compound 7, N-arachidonoyl-o-phospho-L-threonine]
- Immunogenic activity ([1]; compound alone, 91 μg/mouse): no immunogenic activity; also recorded: do not inhibit immunogenic activity
- Dose at which immunostimulating effect in vivo is displayed [1]: 91 μg/mouse

Molecule: CC/C=C\C/C=C\C/C=C\C/C=C\C/C=C\C/C=C\CCC(=O)N[C@@H](COP(=O)(O)O)C(=O)O [Compound 10, N-docosahexaenoyl-o-phospho-L-serine]
- Amount of hemagglutinins ([2]; 45.5 μg/mouse i.v.): 7.8 ± 0.3 Log2 T
- Amount of hemagglutinins ([2]; 91 μg/mouse i.v.): 7.8 ± 0.3 Log2 T
- Amount of hemagglutinins ([2]; 136.5 μg/mouse i.v.): 8.5 ± 0.4 Log2 T
- Immunogenic activity ([1]; compound alone, 91 μg/mouse): no immunogenic activity; also recorded: do not inhibit immunogenic activity
- Dose at which immunostimulating effect in vivo is displayed [1]: 91 μg/mouse

Molecule: CC/C=C\C/C=C\C/C=C\C/C=C\C/C=C\CCCC(=O)N[C@@H](COP(=O)(O)O)C(=O)O [Compound 14, N-eicosapentaenoyl-o-phospho-L-serine]
- Amount of hemagglutinins ([2]; 45.5 μg/mouse i.v.): 6.5 ± 0.3 Log2 T
- Amount of hemagglutinins ([2]; 91 μg/mouse i.v.): 7.0 ± 0.3 Log2 T
- Amount of hemagglutinins ([2]; 136.5 μg/mouse i.v.): 7.2 ± 0.2 Log2 T
- Immunogenic activity ([1]; compound alone, 91 μg/mouse): no immunogenic activity; also recorded: do not inhibit immunogenic activity
- Dose at which immunostimulating effect in vivo is displayed [1]: 91 μg/mouse

Molecule: CC/C=C\C/C=C\C/C=C\C/C=C\C/C=C\CCCC(=O)N[C@H](C(=O)O)[C@@H](C)OP(=O)(O)O [Compound 15, N-eicosapentaenoyl-o-phospho-L-threonine]
- Immunogenic activity ([1]; compound alone, 91 μg/mouse): no immunogenic activity; also recorded: do not inhibit immunogenic activity
- Dose at which immunostimulating effect in vivo is displayed [1]: 91 μg/mouse

B1: human AFP: Alpha-fetoprotein isolated from human cord blood by immunoaffinity chromatography; AFP of Examples 38-41 (protein, UniProt P02771 19-609, looked up)
Alpha-fetoprotein: RTLHRNEYGIASILDSYQCTAEISLADLATIFFAQFVQEATYKEVSKMVKDALTAIEKPTGDEQSSGCLENQLPAFLEELCHEKEILEKYGHSDCCSQSEEGRHNCFLAHKKPTPASIPLFQVPEPVTSCEAYEEDRETFMNKFIYEIARRHPFLYAPTILLWAARYDKIIPSCCKAENAVECFQTKAATVTKELRESSLLNQHACAVMKNFGTRTFQAITVTKLSQKFTKVNFTEIQKLVLDVAHVHEHCCRGDVLDCLQDGEKIMSYICSQQDTLSNKITECCKLTTLERGQCIIHAENDEKPEGLSPNLNRFLGDRDFNQFSSGEKNIFLASFVHEYSRRHPQLAVSVILRVAKGYQELLEKCFQTENPLECQDKGEEELQKYIQESQALAKRSCGLFQKLGEYYLQNAFLVAYTKKAPQLTSSELMAITRKMAATAATCCQLSEDKLLACGEGAADIIIGHLCIRHEMTPVNPGVGQCCTSSYANRRPCFSSLVVDETYVPPAFSDDKFIFHKDLCQAQGVALQTMKQEFLINLVKQKPQITEEQLEAVIADFSGLLEKCCQGQEQEVCFAEEGQKLISKTRAALGV
- Immunogenic activity ([1]; AFP alone, 9 μg/mouse): no immunogenic activity; also recorded: do not inhibit immunogenic activity

B2: rat AFP: Alpha-fetoprotein isolated from neonatal rat serum; AFP of Examples 42-44 (protein, UniProt P02773 25-611, looked up)
Alpha-fetoprotein: RVLHTNEFGIESTLDSSQCPTEKNMFNVATIVVAQFVQDATKAEVNKMSSDALAAMKENTGDGCLENQLSVFLDEICHETELSNKYGFSGCCNQSGVERHQCLLARKKTAPDSVPPFHFPETAESCPAYEENRAMSINTFIYDVSKRNPFLYAPTILYLAAQYDKAVPACCKADNMEECFQTKRASMAKELREGSMLNEHVCAVIRKFGSRNLQAVLIIKLSQKFPKANITEIRKLALDVAHIHEQCCHGNAMECLQDGESVMTHMCSQQEILSSKTAECCKLPTIELGYCIIHAENGDKPEGLTLNPSEFLGDRNFAQFSSEEKLLFMASFLHEYSRNHPNLPVSVILKTAKSYQEILEKCSQSETPSKCQDNMEEELQKHIQESQALAKQSCNLYQKLGPYYLQNLFLIGYTRKAPQLTSAELIDLTGKMVSIASTCCQLSEEKRSACGEGLADIYIGHLCLRHEANPVNSGINHCCSSSYSNRRLCITSFLRDETYVPPPFSEDKFIFHKDLCQAQGRALQTMKQELLINLVKQKPEMTEEQHAAVTADFSGLLEKCCKDQDQEACFAKEGPKLISKTREALGV
- Relative amount of AFC (per 10^6 spleen cells) [1, 3]: 521.4±49.1 and 507.2±27.5 and 346.1±26.8
- Total AFC amount (per spleen) [1, 3]: 59.7±5.1 ·10^3 and 64.6±6.8 ·10^3 and 34.1±3.3 ·10^3
- Immunogenic activity ([1]; AFP alone, 9 μg/mouse): no immunogenic activity; also recorded: do not inhibit immunogenic activity
